Four molecules from patent US9650364B2, “Quinazolines as kinase inhibitors” (GlaxoSmithKline Intellectual Property Development Limited, priority 2013, dated 2017) can be followed below.

Read-outs that look alike come from different tables or passages of the source.

Data set [1] deals with isolated rabbit left ventricular wedge preparation. Kind of data set: Rabbit cardiac wedge preparation (ECG and isometric contractile force). The note with it: for TdP Score: BCL=2000 ms, score range −2 to 14; for TdP Score / ICF (% change), contractility / QRS / QT / Tp-e (msec), transmural dispersion / Δ QT %: mean, n = 2; for Proarrhythmia: preparations affected of n = 2. How it is done:
Female rabbits weighing 2.2-3 kg were anticoagulated with heparin and anesthetized with pentobarbital (50 mg/kg, i.v.). The chest was opened via a left thoracotomy, and the heart was excised and placed in a cardioplegic solution consisting of cold (4° C.) normal Tyrode's solution. A transmural wedge with dimensions of approximately 1.5 cm wide and 2-3 cm long was dissected from the left ventricle.
The wedge tissue was cannulated via the left anterior descending artery or the circumflex artery and perfused with cardioplegic solution. The preparation was then placed in a small tissue bath and arterially perfused with Tyrode's solution (T: 35.7±0.1° C., perfusion pressure: 30-45 mmHg). The ventricular wedge was allowed to equilibrate in the tissue bath until electrically stable, usually one hour. The preparations were stimulated at basic cycle lengths (BCL) of 1000 and 2000 msec using bipolar silver electrodes insulated except at the tips and applied to the endocardial surface.
A transmural electrocardiogram (ECG) was recorded in all experiments using extracellular silver/silver chloride electrodes placed in the Tyrode's solution bathing the preparation 1.0 to 1.5 cm from the epicardial and endocardial surfaces, along the same vector as the transmembrane recordings (Epi: “+” pole). On the ECG, transmural dispersion of repolarization (TDR) was defined by the interval between the end and the peak of T wave (Tp-e). The QT interval was defined as the time from the onset of the QRS to the point at which the final downslope of the T wave crossed the isoelectric line. QRS, QT, and Tp-e durations are measured for 10 sweeps and averaged per treatment. Data from total population of animals is averaged per treatment, and compared to average control values.
isometric contractile force generation (% ICF) is measured for 10 sweeps and averaged per treatment. Data from total population of animals is averaged per treatment, and compared to average control values.
Each test compound was prepared in 100% DMSO at a stock concentration of 30 mM. Compound was diluted to the highest concentration tested into Tyrode's buffer (containing in mM: 129 NaCl, 4 KCl, 0.9 NaH2PO4, 20 NaHCO3, 1.8 CaCl2, 0.5 MgSO4, and 5.5 glucose, pH 7.4 when buffered with 95% O2 and 5% CO2) from which subsequent serial dilutions were prepared.
Each test compound was tested at 4 concentrations, from 1-30 μM. After the wedge preparations were perfused with normal Tyrode's solution and stimulated at a BCL of 1000 msec for one hour, stimulation frequency was reduced to a BCL of 2000 msec for a 5 minute period of stabilization after which baseline ECG and isometric contractile force (ICF) were recorded. The preparations were then returned to a BCL of 1000 msec and perfused with Tyrode's solution containing a test compound. For each test compound concentration, wedge preparations were perfused for 20 minutes at a BCL of 1000 msec followed by 5 minutes at a BCL of 2000 msec during which ECG and ICF were recorded. The compound of Example 2 (6-(tert-butylsulfonyl)-N-(4,5-dimethyl-1H-pyrazol-3-yl)-7-ethoxyquinazolin-4-amine) was evaluated in the rabbit cardiac wedge preparation. The four major readouts from the wedge preparation include QT prolongation, torsadogenicity (TdP score derived from QT, Tp-e and early after depolarizations), impulse conduction (QRS-related) and contractility, which are presented in Table 2.
A scoring system was used for the estimate of risk of a compound for the relative TdP risk using the isolated rabbit left ventricular wedge preparation: points for the QT interval, the Tp-e/QT ratio. The TdP score was generated by first converting the QT interval and Tp-e/QT ratio to % change from baseline. These values are individually assigned a TdP score based on the following system: <−5%=−1, −5% to 10%=0, 10% to 20%=1, 20% to 30%=2, >30%=3. Total scoring system range is −2 to 14 at BCL=2000 ms.

Data set [2] concerns the target T1, RIPK2 (full length FLAG His tagged) (Homo sapiens, UniProt O43353).
T1 construct: Full length FLAG His tagged RIPK2 was purified from a Baculovirus expression system; FLAG (N); 6His (N); made in house; host or cells: Spodoptera frugiperda (Sf9) insect cells, baculovirus
Kind of data set: Fluorescent polarization based binding assay at the ATP binding pocket of RIPK2. Particulars: RIPK2 FP binding. The source says: A fluorescent polarization based binding assay was developed to quantitate interaction of novel test compounds at the ATP binding pocket of RIPK2, by competition with a fluorescently labeled ATP competitive ligand. Full length FLAG His tagged RIPK2 was purified from a Baculovirus expression system and was used at a final assay concentration of twice the KDapparent. A fluorescent labeled ligand (5-({[2-({[3-({4-[(5-hydroxy-2-methylphenyl)amino]-2-pyrimidinyl}amino)phenyl]carbonyl}amino)ethyl]amino}carbonyl)-2-(6-hydroxy-3-oxo-3H-xanthen-9-yl)benzoic acid, prepared as described in WO2011/120025) was used at a final assay concentration of 5 nM. Both the enzyme and ligand were prepared in solutions in 50 mM HEPES pH7.5, 150 mM NaCl, 10 mM MgCl2, 1 mM DTT, and 1 mM CHAPS. Test compounds were prepared in 100% DMSO and 100 nL was dispensed to individual wells of a multiwell plate. Next, 5 ul RIPK2 was added to the test compounds at twice the final assay concentration, and incubated at rt for 10 min. Following the incubation, 5 ul of the fluorescent labeled ligand solution, was added to each reaction, at twice the final assay concentration, and incubated at rt for at least 10 min. Finally, samples were read on an instrument capable of measuring fluorescent polarization. Test compound inhibition was expressed as percent (%) inhibition of internal assay controls.
For concentration/dose response experiments, normalized data were fit and pIC50s determined using conventional techniques. The pIC50s are averaged to determine a mean value, for a minimum of 2 experiments.
Full-length human RIPK2 (receptor-interacting serine-threonine kinase 2) cDNA was purchased from Invitrogen (Carlsbad, Calif., USA, Clone ID:IOH6368, RIPK2-pENTR 221). Gateway® LR cloning was used to site-specifically recombine RIPK2 downstream to an N-terminal FLAG-6His contained within the destination vector pDEST8-FLAG-His6 according to the protocol described by Invitrogen. Transfection into Spodoptera frugiperda (Sf9) insect cells was performed using Cellfectin® (Invitrogen), according to the manufacturer's protocol.

Data set [3] has as its system RIP2 kinase-dependent cytokine production (TNFα) in human whole blood. Kind of data set: MDP-stimulated human whole blood cytokine (TNFα) production assay. In kind it is cell-based. Particulars: inhibition of TNFα, MDP 100 ng/mL, 6 hr, mean of minimum 2 experiments. The method, then:
A muramyl dipeptide (MDP)-stimulated human whole blood cytokine production assay was developed to evaluate the cellular potency and efficacy of novel test compounds. Heparinized blood (160 μL) obtained from healthy human volunteers was dispensed into individual wells of a multiwell plate. Test compounds were dissolved in 100% DMSO and diluted in calcium- and magnesium-free D-PBS to prepare 10× working stock solutions. Twenty microliters of diluted test compound was added per well and the plates were placed on a plate shaker (500 rpm) and incubated for 30 min in a humidified incubator (37° C., 5% CO2). A 10× working stock of MDP was prepared in sterile, endotoxin-free water containing 1% DMSO. Twenty microliters of the MDP stock solution was added per well (final conc.=100 ng/mL) to stimulate RIP2 kinase-dependent cytokine production. The final concentration of DMSO was 0.1% (v/v) in all wells. Plates were incubated for an additional 6 hr (as noted above). Then an additional 100 μL of D-PBS (Dulbecco's phosphate-buffered saline) was added/well, the plates were centrifuged, and supernatants collected. TNFα levels in the supernatants were quantified using a commercial immunoassay (MesoScale Discovery). Test compound inhibition was expressed as percent (%) inhibition of internal assay controls. For concentration/dose response experiments, normalized data were fit and pIC50s determined using conventional techniques. The pIC50s are averaged to determine a mean value, for a minimum of 2 experiments.

In another data set the test system is 337 member kinase panel. Kind of data set: Kinome selectivity, in vitro profiling (Reaction Biology Corporation). In kind it is biochemical. The note with it: compound at 1 μM. The method, then:
Kinome selectivity (as conducted by Reaction Biology Corporation, One Great Valley Parkway, Malvern, Pa., USA, 19355, http://www.reactionbiology.com) for the compound of Example 2 (6-(tert-butylsulfonyl)-N-(4,5-dimethyl-1H-pyrazol-3-yl)-7-ethoxyquinazolin-4-amine) was determined via in vitro profiling against a 337 member kinase panel.

Setting [4] is: mean of minimum 2 experiments, read-out: pIC50 (converted).
Where [5] appears, read: updated average after continued testing, read-out: average pIC50 after continued testing (converted).

T1 sequence (O43353 whole entry): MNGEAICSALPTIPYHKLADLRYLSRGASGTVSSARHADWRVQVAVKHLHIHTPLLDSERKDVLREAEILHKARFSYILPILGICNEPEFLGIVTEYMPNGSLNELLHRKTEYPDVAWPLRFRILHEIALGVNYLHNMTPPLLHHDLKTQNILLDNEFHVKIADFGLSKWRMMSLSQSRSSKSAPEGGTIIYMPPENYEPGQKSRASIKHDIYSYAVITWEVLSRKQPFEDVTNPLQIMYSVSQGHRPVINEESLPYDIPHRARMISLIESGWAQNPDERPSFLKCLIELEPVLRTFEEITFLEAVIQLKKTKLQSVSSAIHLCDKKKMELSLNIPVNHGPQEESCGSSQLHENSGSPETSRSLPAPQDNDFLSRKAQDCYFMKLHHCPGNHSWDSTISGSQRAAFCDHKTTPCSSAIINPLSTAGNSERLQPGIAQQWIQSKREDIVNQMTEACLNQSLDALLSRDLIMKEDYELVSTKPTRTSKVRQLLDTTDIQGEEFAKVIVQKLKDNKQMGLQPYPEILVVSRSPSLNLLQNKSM

On to `CCOc1cc2ncnc(Nc3n[nH]c(C)c3C)c2cc1S(=O)(=O)C(C)(C)C` [Example 2, 6-(tert-Butylsulfonyl)-N-(4,5-dimethyl-1H-pyrazol-3-yl)-7-ethoxyquinazolin-4-amine], for which, in data set [1] (1 μM), the “TdP Score” value is −0.50; the “ICF (% change), contractility” value was −4.4%; the “QRS” value amounted to 39.6 ms; the “QT” value stood at 346.4 ms. In addition, in data set [1] (1 μM), the “Tp-e (msec), transmural dispersion” value is 71.9 ms; the “Δ QT %” value stood at 3%; the Proarrhythmia is on record as 0/2. Further, in data set [1] (3 μM), the “TdP Score” value was 0.00; the “ICF (% change), contractility” value is −5.3%; the “QRS” value turned out to be 39.2 ms; the “QT” value worked out at 351.9 ms. Also, in data set [1] (3 μM), the “Tp-e (msec), transmural dispersion” value amounted to 73.2 ms; the “Δ QT %” value was determined as 4.8%; the Proarrhythmia is given as 0/2. For the same molecule, in data set [1] (10 μM), the “TdP Score” value was −0.50; the “ICF (% change), contractility” value is −15.1%; the “QRS” value turned out to be 39.4 ms; the “QT” value is 348.8 ms. Further, in data set [1] (10 μM), the “Tp-e (msec), transmural dispersion” value was 68.4 ms; the “Δ QT %” value is 4.0%; the Proarrhythmia was 0/2. Further, in data set [1] (30 μM), the “TdP Score” value was −0.50; the “ICF (% change), contractility” value is recorded as −20.7%; the “QRS” value was 39.7 ms; the “QT” value amounted to 348.8 ms. Also, in data set [1] (30 μM), the “Tp-e (msec), transmural dispersion” value came to 69.1 ms; the “Δ QT %” value is 4.0%; the Proarrhythmia is 0/2. Besides, the IC50 in data set [2] (setting [4]) was 15.8 nM. Moreover, the IC50 in data set [3] was 63.1 nM. For the same molecule, in the data set on 337 member kinase panel, the “number of kinases with >50% inhibition, of 337 kinases tested” value stood at 4 and the “number of kinases with >70% inhibition, of 337 kinases tested” value is listed as 1.

With `Cc1[nH]nc(Nc2ncnc3cc(OCC4CCCO4)c(S(=O)(=O)C(C)(C)C)cc23)c1C` (stereo not shown) [Example 4, 6-(tert-Butylsulfonyl)-N-(4,5-dimethyl-1H-pyrazol-3-yl)-7-((tetrahydrofuran-2-yl)methoxy)quinazolin-4-amine], the figures for the IC50 in data set [2] (setting [4]) and in data set [3] were 10 nM and 63.1 nM, respectively.

Turning to `CCCOc1cc2ncnc(Nc3n[nH]c(C)c3C)c2cc1S(=O)(=O)C(C)(C)C` [Example 3, 6-(tert-Butylsulfonyl)-N-(4,5-dimethyl-1H-pyrazol-3-yl)-7-propoxyquinazolin-4-amine], the IC50 in data set [2] (setting [4]) is 12.6 nM; in data set [2] (setting [5]) it was 7.94 nM; in data set [3], 100 nM.

With `COCCOc1cc2ncnc(Nc3n[nH]c(C)c3C)c2cc1S(=O)(=O)C(C)(C)C` [Example 1, 6-(tert-Butylsulfonyl)-N-(4,5-dimethyl-1H-pyrazol-3-yl)-7-(2-methoxyethoxy)quinazolin-4-amine], the IC50 is 39.8 nM in data set [2] (setting [4]), 31.6 nM in data set [2] (setting [5]) and 39.8 nM in data set [3].
